Experiments:
Format in all cases: cell-based
Human LBAT = target: T1, Human LBAT (Homo sapiens, UniProt Q14973); experiment: LBAT (h/m) assay: 3H-taurocholic acid uptake in human LBAT-overexpressing cells; settings: 0.3 μM 3H-taurocholic acid and 7.5 μM cold taurocholic acid, 20 minutes, read-out: hLBAT IC50
T1 construct: expressed in transfected cells; kept under Geneticin selection
T1 sequence (Q14973 1-349): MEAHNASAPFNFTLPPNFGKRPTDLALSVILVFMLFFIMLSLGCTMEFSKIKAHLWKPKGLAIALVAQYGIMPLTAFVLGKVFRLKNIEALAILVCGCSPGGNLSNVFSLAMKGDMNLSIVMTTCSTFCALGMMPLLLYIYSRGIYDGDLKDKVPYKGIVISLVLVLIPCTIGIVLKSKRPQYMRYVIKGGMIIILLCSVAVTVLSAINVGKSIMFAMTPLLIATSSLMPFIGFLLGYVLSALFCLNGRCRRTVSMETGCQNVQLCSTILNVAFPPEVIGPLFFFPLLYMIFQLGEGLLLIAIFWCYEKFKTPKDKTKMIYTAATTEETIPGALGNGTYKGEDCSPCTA
In short: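 LBAT-overexpressing cells, serum-free MEM-alpha, 20 min at 37° C with inhibitor (3-fold, 10-point) plus 0.3 μM 3H-taurocholic acid and cold taurocholic acid (7.5 μM human; 25 μM mouse), 0.2% DMSO. Stopped on ice, washed with 1 mM unlabelled taurocholate; uptake by scintillation counting.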

Human ASBT = target: T2, Human ASBT (Homo sapiens, UniProt Q12908); experiment: ASBT (h/m) assay: 3H-taurocholic acid uptake in human ASBT-overexpressing cells; settings: 0.25 μM 3H-taurocholic acid and 5 μM cold taurocholic acid, 20 minutes, read-out: hASBT IC50
T2 construct: expressed in transfected cells; kept under Puromycin selection
T2 sequence (Q12908 1-348): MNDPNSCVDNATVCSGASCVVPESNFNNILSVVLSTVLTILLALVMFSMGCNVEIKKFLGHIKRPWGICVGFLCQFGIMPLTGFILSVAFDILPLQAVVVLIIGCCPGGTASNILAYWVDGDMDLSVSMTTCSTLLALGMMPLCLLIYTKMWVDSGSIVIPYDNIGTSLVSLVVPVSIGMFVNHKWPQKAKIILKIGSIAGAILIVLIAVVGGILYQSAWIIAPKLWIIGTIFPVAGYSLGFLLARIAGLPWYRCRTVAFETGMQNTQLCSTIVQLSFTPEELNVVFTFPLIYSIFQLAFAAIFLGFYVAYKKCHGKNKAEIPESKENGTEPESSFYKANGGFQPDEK
In short: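 ASBT-overexpressing cells, seeded 48 h earlier, took up 0.25 µM 3H-taurocholic acid plus 5 µM cold taurocholate for 20 min at 37 °C with inhibitor (10-point 3-fold series, top 10 µM, 0.2% DMSO). Ice stop, washes with cold 1 mM taurocholate in HEPES-HBSS pH 7.4, scintillation counting.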

HepaRG cells = experiment: HepaRG-based assay: 3H-taurocholic acid uptake in differentiated HepaRG cells; settings: Homo sapiens, HepaRG, 0.3 μM 3H-taurocholic acid and 7.5 μM cold taurocholic acid, 30 minutes
In short: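 Differentiated HepaRG cells cultured 7 days post-seeding were exposed for 30 min at 37 °C to 0.3 μM 3H-taurocholic acid plus 7.5 μM cold taurocholic acid with inhibitor (3-fold dilutions, 0.2% DMSO). Uptake was stopped on ice, washed with 1 mM unlabelled taurocholic acid, and counted by scintillation.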

Row | Structure (SMILES) | IC50 (Human LBAT) [nM] | IC50 (Human ASBT) [nM] | IC50 (HepaRG cells) [nM]
1 | CCCCC1(CCCC)CN(c2ccc(NC(=O)C3CCCC3)cc2)c2cc(SC)c(O/C=C/C(=O)O)cc2S(=O)(=O)C1 [Example 37, (E)-3-((3,3-dibutyl-5-(4-(cyclopentanecarboxamido)phenyl)-7-(methylthio)-1,1-dioxido-2,3,4,5-tetrahydro-1,5-benzothiazepin-8-yl)oxy)acrylic Acid] | 45 | 2000 | 592
2 | CCC1(CC)CN(c2ccccc2)c2cc(SC)c(O/C=C/C(=O)O)cc2S(=O)(=O)C1 [Example 39, (E)-3-((3,3-diethyl-7-(methylthio)-1,1-dioxido-5-phenyl-2,3,4,5-tetrahydro-1,5-benzothiazepin-8-yl)oxy)acrylic Acid] | 75 | 796 | 399
3 | CCCCC1(CC)CN(c2ccc(C(=O)NC(C)(C)C)cc2)c2cc(SC)c(O/C=C/C(=O)O)cc2S(=O)(=O)C1 (stereo not drawn) [Example 62, (E)-3-((3-butyl-5-(4-(tert-butylcarbamoyl)phenyl)-3-ethyl-7-(methylthio)-1,1-dioxido-2,3,4,5-tetrahydro-1,5-benzothiazepin-8-yl)oxy)acrylic Acid] | 235 | > 20000 | 772
4 | CCCCC1(CCCC)CN(c2ccc(C(=O)NC(C)C)cc2)c2cc(SC)c(O/C=C/C(=O)O)cc2S(=O)(=O)C1 [Example 69, (E)-3-((3,3-dibutyl-5-(4-(isopropylcarbamoyl)phenyl)-7-(methylthio)-1,1-dioxido-2,3,4,5-tetrahydro-1,5-benzothiazepin-8-yl)oxy)acrylic Acid] | 364 | > 3000 | 630
5 | CCCCC1(CCCC)CN(c2ccccc2)c2cc(SCC)c(O/C=C(\F)C(=O)O)cc2S(=O)(=O)C1 [Example 70, (Z)-3-((3,3-dibutyl-7-(ethylthio)-1,1-dioxido-5-phenyl-2,3,4,5-tetrahydro-1,5-benzothiazepin-8-yl)oxy)-2-fluoroacrylic Acid] | 81 | 125 | 716
6 | CCCCC1(CC)CN(c2ccccc2)c2cc(SCC)c(O/C=C(\F)C(=O)O)cc2S(=O)(=O)C1 (stereo not drawn) [Example 72, (Z)-3-((3-butyl-3-ethyl-7-(ethylthio)-1,1-dioxido-5-phenyl-2,3,4,5-tetrahydro-1,5-benzothiazepin-8-yl)oxy)-2-fluoroacrylic Acid] | 13 | 76 | 319
7 | CCCCC1(CCCC)CN(c2ccccc2)c2cc(SC)c(O/C=C(\C)C(=O)O)cc2S(=O)(=O)N1 [Example 74, (E)-3-((3,3-dibutyl-7-(methylthio)-1,1-dioxido-5-phenyl-2,3,4,5-tetrahydro-1,2,5-benzothiadiazepin-8-yl)oxy)-2-methylacrylic Acid] | 649 | 57 | 3380
8 | CCCCC1(CC)CN(c2ccccc2)c2cc(Br)c(O/C=C/C(=O)O)cc2S(=O)(=O)N1 (stereo not drawn) [Example 87, (E)-3-((7-bromo-3-butyl-3-ethyl-1,1-dioxido-5-phenyl-2,3,4,5-tetrahydro-1,2,5-benzothiadiazepin-8-yl)oxy)acrylic Acid] | 220 | 157 | 1080
9 | CCCCC1(CCCC)CN(c2ccc(O)cc2)c2cc(SC)c(O/C=C(\F)C(=O)O)cc2S(=O)(=O)C1 [Example 95, (Z)-3-((3,3-dibutyl-5-(4-hydroxyphenyl)-7-(methylthio)-1,1-dioxido-2,3,4,5-tetrahydro-1,5-benzothiazepin-8-yl)oxy)-2-fluoroacrylic Acid] | 77 | 17 | 1220

Second part, the molecule after the results:

Row | IC50 (Human LBAT) [nM] | IC50 (Human ASBT) [nM] | IC50 (HepaRG cells) [nM] | Structure (SMILES)
10 | 108 | 4550 | 1510 | CCCCC1(CCCC)CN(c2ccc(NC(=O)CCC)cc2)c2cc(SC)c(O/C=C/C(=O)O)cc2S(=O)(=O)C1 [Example 40, (E)-3-((3,3-dibutyl-5-(4-butyramidophenyl)-7-(methylthio)-1,1-dioxido-2,3,4,5-tetrahydro-1,5-benzothiazepin-8-yl)oxy)acrylic Acid]
11 | 201 | 1460 | 3160 | CCCCC1(CCCC)CN(c2ccccc2)c2ccc(O/C=C(\F)C(=O)O)cc2S(=O)(=O)C1 [Example 45, (Z)-3-((3,3-dibutyl-1,1-dioxido-5-phenyl-2,3,4,5-tetrahydro-1,5-benzothiazepin-8-yl)oxy)-2-fluoroacrylic Acid]
12 | 62 | 280 | 800 | CCCCC1(CCCC)CN(c2ccccc2)c2cc(Cl)c(O/C=C(\F)C(=O)O)cc2S(=O)(=O)C1 [Example 53, (Z)-3-((3,3-dibutyl-7-chloro-1,1-dioxido-5-phenyl-2,3,4,5-tetrahydro-1,5-benzothiazepin-8-yl)oxy)-2-fluoroacrylic Acid]
13 | 100 | 186 | 260 | CCC1(CC)CN(c2ccccc2)c2cc(I)c(O/C=C/C(=O)O)cc2S(=O)(=O)C1 [Example 54, (E)-3-((3,3-diethyl-7-iodo-1,1-dioxido-5-phenyl-2,3,4,5-tetrahydro-1,5-benzothiazepin-8-yl)oxy)acrylic Acid]
14 | 100 | 487 | 328 | CCC1(CC)CN(c2ccccc2)c2cc(Br)c(O/C=C/C(=O)O)cc2S(=O)(=O)C1 [Example 55, (E)-3-((7-bromo-3,3-diethyl-1,1-dioxido-5-phenyl-2,3,4,5-tetrahydro-1,5-benzothiazepin-8-yl)oxy)acrylic Acid]
15 | 37 | 380 | 175 | CCC1(CC)CN(c2ccccc2)c2cc(Br)c(O/C=C(\F)C(=O)O)cc2S(=O)(=O)C1 [Example 56, (Z)-3-((7-bromo-3,3-diethyl-1,1-dioxido-5-phenyl-2,3,4,5-tetrahydro-1,5-benzothiazepin-8-yl)oxy)-2-fluoroacrylic Acid]
16 | 30 | 2760 | 518 | CCC1(CC)CN(c2ccc(NCc3ccccc3)cc2)c2cc(SC)c(O/C=C(\F)C(=O)O)cc2S(=O)(=O)C1 [Example 66, (Z)-3-((5-(4-(benzylamino)phenyl)-3,3-diethyl-7-(methylthio)-1,1-dioxido-2,3,4,5-tetrahydro-1,5-benzothiazepin-8-yl)oxy)-2-fluoroacrylic Acid]
17 | 130 | 6670 | 344 | CCCCC1(CCCC)CN(c2ccc(C(=O)NC(C)(C)C)cc2)c2cc(SC)c(O/C=C/C(=O)O)cc2S(=O)(=O)C1 [Example 68, (E)-3-((3,3-dibutyl-5-(4-(tert-butylcarbamoyl)phenyl)-7-(methylthio)-1,1-dioxido-2,3,4,5-tetrahydro-1,5-benzothiazepin-8-yl)oxy)acrylic Acid]
18 | 47 | > 3000 | 296 | CCCCC1(CCCC)CN(c2ccc(NC(=O)CC)cc2)c2cc(SC)c(O/C=C(\F)C(=O)O)cc2S(=O)(=O)C1 [Example 71, (Z)-3-((3,3-dibutyl-7-(methylthio)-1,1-dioxido-5-(4-propionamidophenyl)-2,3,4,5-tetrahydro-1,5-benzothiazepin-8-yl)oxy)-2-fluoroacrylic Acid]
19 | 120 | 155 | 766 | CCCCC1(CC)CN(c2ccccc2)c2cc(SCC)c(O/C=C/C(=O)O)cc2S(=O)(=O)C1 (stereo not drawn) [Example 73, (E)-3-((3-butyl-3-ethyl-7-(ethylthio)-1,1-dioxido-5-phenyl-2,3,4,5-tetrahydro-1,5-benzothiazepin-8-yl)oxy)acrylic Acid]
20 | 8 | > 1000 | 246 | CCCCC1(CCCC)CN(c2ccc(C(=O)NC(C)(C)C)cc2)c2cc(SC)c(O/C=C(\F)C(=O)O)cc2S(=O)(=O)C1 [Example 79, (Z)-3-((3,3-dibutyl-5-(4-(tert-butylcarbamoyl)phenyl)-7-(methylthio)-1,1-dioxido-2,3,4,5-tetrahydro-1,5-benzothiazepin-8-yl)oxy)-2-fluoroacrylic Acid]
21 | 231 | 15 | 785 | CCCCC1(CC)CN(c2ccccc2)c2cc(F)c(O/C=C(\F)C(=O)O)cc2S(=O)(=O)C1 (stereo not drawn) [Example 96, (Z)-3-((3-butyl-3-ethyl-7-fluoro-1,1-dioxido-5-phenyl-2,3,4,5-tetrahydro-1,5-benzothiazepin-8-yl)oxy)-2-fluoroacrylic Acid]

Reference: patent US11306064B2, “Benzothia(di)azepine compounds and their use as bile acid modulators” (Albireo AB, priority 2018, dated 2022)
